According to patent publication US10072005B2, “4-azaindole derivatives” (EISAI R&D MANAGEMENT CO., LTD., priority 2013, dated 2018):

Target: mAChR M1 (Homo sapiens, UniProt P11229)
Assay: In vitro cellular calcium flux assay, positive allosteric modulation of mAChR M1
Type: cell-based
Details: for pEC50 for positive allosteric modulation: BHK cells expressing mAChR M1, EC20 carbachol, Examples 76-80 and 82-89 slightly modified procedure
Protocol: Baby hamster kidney cells stably expressing human or rat mAChR M1 to M5 were utilised for primary and selectivity profiling activities. mAChR M2 and M4 cell lines also stably expressed the chimeric Gαqi5 G-protein.
Human mAChR M1, M3, M5 and rat M1 cells were grown in low glucose Dulbecco's Modified Eagle's Medium (DMEM) medium plus heat inactivated 10% fetal bovine serum (HI FBS) and 500 μg/ml hygromycin B^1. Human mAChR M2 and M4 cells were maintained as above with^2 the addition of 500 μg/ml G418 to the media. Cells were maintained in culture at 37° C./5% CO2 and passaged twice weekly by treatment with 0.05% Trypsin/EDTA detachment solution, centrifugation (200 g, 5 min) and re-suspension in fresh media. Following cell expansion, cells were cryopreserved at −80° C. by treatment with 0.05% Trypsin/EDTA detachment solution, centrifugation (200 g, 5 min) and re-suspension of the pellet in freezing media (90% HI FBS/10% DMSO^3) at 15E6 cells/ml^4.
Prior to assaying, cells were prepared by thawing at 37° C. in a water bath, centrifugation (200 g, 5 min) and re-suspension of the pellet in fresh media. 15000 cells per well were seeded in black, clear bottomed 384-well Greiner Bio-One plates in plating medium (DMEM/10% HI FBS) and incubated overnight at 37 C/5% CO2.
On the day of the assay, media was removed from each well and replaced with 50 μl^5 assay buffer (HBSS with 20 mM HEPES and 2.5 mM Probenecid) containing the calcium indicator, Calcium 4 (Molecular Devices). Cells were then incubated at 37° C./5% CO2 for 30 min and at room temperature.
Compound preparation was carried out by generation of 11-point, 1 in 3 serial dilution concentration response curves in 100% DMSO. Compound was then diluted 1 in 65^6 with assay buffer (HBSS with 20 mM HEPES and 2.5 mM Probenecid) prior to the addition of 10 ul^7 to the cells using a Tetra fluorometric imaging plate reader (Molecular Devices)^8. Compound driven increases in intracellular calcium flux was measured as an increase in fluorescence (494Ex, 516Em)^9.
Positive allosteric modulator pEC50 values and antagonist pIC50 values for each compound were then determined. […] The points of modification and the alternate reagents, concentrations or equipment employed in these examples were: ^1200 μg/ml hygromycin B; ^2G418 not added; ^3CELLBANKER 1; ^410E6; ^5 40 μl; ^6 1 in 99; ^7 20 μl; ^8FDSS6000 (Hamamatsu Photonics); ^9(480Ex, 540Em); ^10Spotfire (TIBCO).

Sequence of mAChR M1 (P11229 whole entry, looked up): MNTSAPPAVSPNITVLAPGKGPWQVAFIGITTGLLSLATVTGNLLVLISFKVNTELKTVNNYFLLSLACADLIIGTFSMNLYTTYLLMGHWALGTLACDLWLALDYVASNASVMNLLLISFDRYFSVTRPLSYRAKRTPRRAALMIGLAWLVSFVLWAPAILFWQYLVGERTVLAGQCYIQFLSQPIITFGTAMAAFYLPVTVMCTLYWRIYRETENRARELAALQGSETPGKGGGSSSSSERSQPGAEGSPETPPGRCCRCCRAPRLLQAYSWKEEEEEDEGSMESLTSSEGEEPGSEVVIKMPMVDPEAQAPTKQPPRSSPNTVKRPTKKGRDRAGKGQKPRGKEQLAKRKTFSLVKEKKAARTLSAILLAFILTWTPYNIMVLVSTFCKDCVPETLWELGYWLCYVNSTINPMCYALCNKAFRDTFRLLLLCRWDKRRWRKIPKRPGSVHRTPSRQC

Structure (SMILES)	pEC50 for positive allosteric modulation	EC50 [nM]
Cc1cc(-c2ccc(Cn3cc(C(=O)N[C@H]4CCCC[C@@H]4O)c4ncccc43)c(F)c2)ccn1 [Example 45, 1-(2-Fluoro-4-(2-methylpyridin-4-yl)benzyl)-N-((1S,2S)-2-hydroxycyclohexyl)-1H-pyrrolo[3,2-b]pyridine-3-carboxamide]	7.5	
O=C(NC1CCCCC1)c1cn(Cc2ccc(-n3cccn3)cc2)c2cccnc12 [Example 50, 1-(4-(1H-Pyrazol-1-yl)benzyl)-N-cyclohexyl-1H-pyrrolo[3,2-b]pyridine-3-carboxamide]	6.4	
O=C(NC1CCC(F)(F)CC1)c1cn(Cc2ccc(-n3cccn3)cc2)c2cccnc12 [Example 51, 1-(4-(1H-Pyrazol-1-yl)benzyl)-N-(4,4-difluorocyclohexyl)-1H-pyrrolo[3,2-b]pyridine-3-carboxamide]	6.3	
O=C(N[C@H]1CCCNC1)c1cn(Cc2ccc(-n3cccn3)cc2)c2cccnc12 [Example 52, (S)-1-(4-(1H-Pyrazol-1-yl)benzyl)-N-(piperidin-3-yl)-1H-pyrrolo[3,2-b]pyridine-3-carboxamide]	6.7	
O=C(N[C@@H]1CCCNC1)c1cn(Cc2ccc(-n3cccn3)cc2)c2cccnc12 [Example 53, (R)-1-(4-(1H-Pyrazol-1-yl)benzyl)-N-(piperidin-3-yl)-1H-pyrrolo[3,2-b]pyridine-3-carboxamide]	6.2	
CN1CCC[C@H](NC(=O)c2cn(Cc3ccc(-n4cccn4)cc3)c3cccnc23)C1 [Example 54, (S)-1-(4-(1H-Pyrazol-1-yl)benzyl)-N-(1-methylpiperidin-3-yl)-1H-pyrrolo[3,2-b]pyridine-3-carboxamide]	7.5	
CN1CCC[C@@H](NC(=O)c2cn(Cc3ccc(-n4cccn4)cc3)c3cccnc23)C1 [Example 55, (R)-1-(4-(1H-Pyrazol-1-yl)benzyl)-N-(1-methylpiperidin-3-yl)-1H-pyrrolo[3,2-b]pyridine-3-carboxamide]	6.7	
O=C(N[C@H]1CCCC[C@@H]1O)c1cn(Cc2ccc(Br)cc2)c2cccnc12 [Example 56, 1-(4-Bromobenzyl)-N-((1S,2S)-2-hydroxycyclohexyl)-1H-pyrrolo[3,2-b]pyridine-3-carboxamide]	6.5	
Cn1cc(-c2ccc(Cn3cc(C(=O)N[C@H]4CCCC[C@@H]4O)c4ncccc43)cc2)cn1 [Example 57, N-((1S,2S)-2-Hydroxycyclohexyl)-1-(4-(1-methyl-1H-pyrazol-4-yl)benzyl)-1H-pyrrolo[3,2-b]pyridine-3-carboxamide]	7.6	
COc1ccc(Cn2cc(C(=O)N[C@H]3CCCC[C@@H]3O)c3nccc(Cl)c32)cc1 [Example 58, 7-Chloro-N-((1S,2S)-2-hydroxycyclohexyl)-1-(4-methoxybenzyl)-1H-pyrrolo[3,2-b]pyridine-3-carboxamide]	7.7	
Cc1ccnc2c(C(=O)N[C@H]3CCCC[C@@H]3O)cn(Cc3ccc(Cl)nc3)c12 [Example 59, 1-((6-Chloropyridin-3-yl)methyl)-N-((1S,2S)-2-hydroxycyclohexyl)-7-methyl-1H-pyrrolo[3,2-b]pyridine-3-carboxamide]	7.4	
Cc1ccnc2c(C(=O)N[C@H]3CCCC[C@@H]3O)cn(Cc3ccc(Cl)cc3)c12 [Example 60, 1-(4-Chlorobenzyl)-N-((1S,2S)-2-hydroxycyclohexyl)-7-methyl-1H-pyrrolo[3,2-b]pyridine-3-carboxamide]	7.8	
Cc1ccc(Cn2cc(C(=O)N[C@H]3CCCC[C@@H]3O)c3nccc(Cl)c32)nc1 [Example 61, 7-Chloro-N-((1S,2S)-2-hydroxycyclohexyl)-1-((5-methylpyridin-2-yl)methyl)-1H-pyrrolo[3,2-b]pyridine-3-carboxamide]	7.0	
Cc1ccc(Cn2cc(C(=O)N[C@H]3CCCC[C@@H]3O)c3nccc(Cl)c32)cn1 [Example 62, 7-Chloro-N-((1S,2S)-2-hydroxycyclohexyl)-1-((6-methylpyridin-3-yl)methyl)-1H-pyrrolo[3,2-b]pyridine-3-carboxamide]	7.4	
Cc1ccc(Cn2cc(C(=O)N[C@H]3CCCC[C@@H]3O)c3nccc(C)c32)cc1 [Example 63, N-((1S,2S)-2-Hydroxycyclohexyl)-7-methyl-1-(4-methylbenzyl)-1H-pyrrolo[3,2-b]pyridine-3-carboxamide]	7.6	
Cc1ccc(Cn2cc(C(=O)N[C@H]3CCCC[C@@H]3O)c3nccc(C)c32)nc1 [Example 64, N-((1S,2S)-2-Hydroxycyclohexyl)-7-methyl-1-((5-methylpyridin-2-yl)methyl)-1H-pyrrolo[3,2-b]pyridine-3-carboxamide]	7.2	
Cc1ccnc2c(C(=O)N[C@H]3CCCC[C@@H]3O)cn(Cc3cccc(F)c3)c12 [Example 65, 1-(3-Fluorobenzyl)-N-((1S,2S)-2-hydroxycyclohexyl)-7-methyl-1H-pyrrolo[3,2-b]pyridine-3-carboxamide]	7.7	
COc1ccc(Cn2cc(C(=O)N[C@H]3CCCC[C@@H]3O)c3nccc(C)c32)cc1C [Example 66, N-((1S,2S)-2-Hydroxycyclohexyl)-1-(4-methoxy-3-methylbenzyl)-7-methyl-1H-pyrrolo[3,2-b]pyridine-3-carboxamide]	7.9	
COc1ccc(Cn2cc(C(=O)N[C@H]3CCCC[C@@H]3O)c3nccc(C)c32)cn1 [Example 67, N-((1S,2S)-2-Hydroxycyclohexyl)-1-((6-methoxypyridin-3-yl)methyl)-7-methyl-1H-pyrrolo[3,2-b]pyridine-3-carboxamide]	7.5	
COc1ccc(Cn2cc(C(=O)N[C@H]3CCCC[C@@H]3O)c3nccc(Cl)c32)cn1 [Example 68, 7-Chloro-N-((1S,2S)-2-hydroxycyclohexyl)-1-((6-methoxypyridin-3-yl)methyl)-1H-pyrrolo[3,2-b]pyridine-3-carboxamide]	7.7	
COc1cc(Cn2cc(C(=O)N[C@H]3CCCC[C@@H]3O)c3nccc(Cl)c32)ccn1 [Example 69, 7-Chloro-N-((1S,2S)-2-hydroxycyclohexyl)-1-((2-methoxypyridin-4-yl)methyl)-1H-pyrrolo[3,2-b]pyridine-3-carboxamide]	8.0	
N#Cc1ccc(Cn2cc(C(=O)N[C@H]3CCCC[C@@H]3O)c3nccc(Cl)c32)cn1 [Example 70, 7-Chloro-1-((6-cyanopyridin-3-yl)methyl)-N-((1S,2S)-2-hydroxycyclohexyl)-1H-pyrrolo[3,2-b]pyridine-3-carboxamide]		100
COc1cc(Cn2cc(C(=O)N[C@H]3CCCC[C@@H]3O)c3nccc(C)c32)ccn1 [Example 71, N-((1S,2S)-2-Hydroxycyclohexyl)-1-((2-methoxypyridin-4-yl)methyl)-7-methyl-1H-pyrrolo[3,2-b]pyridine-3-carboxamide]	7.9	
Cn1cc(Cn2cc(C(=O)N[C@H]3CCCC[C@@H]3O)c3nccc(Cl)c32)cn1 [Example 72, 7-Chloro-N-((1S,2S)-2-hydroxycyclohexyl)-1-((1-methyl-1H-pyrazol-4-yl)methyl)-1H-pyrrolo[3,2-b]pyridine-3-carboxamide]	7.8	
Cc1ccnc2c(C(=O)N[C@H]3CCCC[C@@H]3O)cn(Cc3cnn(C)c3)c12 [Example 73, N-((1S,2S)-2-Hydroxycyclohexyl)-7-methyl-1-((1-methyl-1H-pyrazol-4-yl)methyl)-1H-pyrrolo[3,2-b]pyridine-3-carboxamide]	7.9	
Cc1csc(Cn2cc(C(=O)N[C@H]3CCCC[C@@H]3O)c3nccc(Cl)c32)n1 [Example 74, 7-Chloro-N-((1S,2S)-2-hydroxycyclohexyl)-1-((4-methylthiazol-2-yl)methyl)-1H-pyrrolo[3,2-b]pyridine-3-carboxamide]	6.7	
Cc1cnc(Cn2cc(C(=O)N[C@H]3CCCC[C@@H]3O)c3nccc(Cl)c32)s1 [Example 75, 7-Chloro-N-((1S,2S)-2-hydroxycyclohexyl)-1-((5-methylthiazol-2-yl)methyl)-1H-pyrrolo[3,2-b]pyridine-3-carboxamide]	6.6	
